In patent US8686049B2, “Agent for increasing testosterone level” (Tohoku University, priority 2006, dated 2014):

Legend:
[1] = Testis vitamin K concentration, Example 2; format: in vivo, rat; conditions: rats, 75 mg/kg in diet, 35 days (FIG. 7), P<0.05
Protocol: (§1) As in Example 1, the experimental animals and breeding conditions were ordinary rats (Wistar/Std, eight-week-old males) bred in a breeding room set to a temperature of 23° C., humidity of 50±5%, and a 12-hour light/dark cycle in which lights were turned on at 8 AM and turned off at 8 PM.
(§2) The breeding period was 35 days. Blood was drawn from tail veins every week at 18 o'clock. Measurements of weight, diet intake, testis vitamin K content, testis testosterone concentration, and plasma testosterone concentration were taken. The analysis method was similar to that in Example 1.
Data on testis vitamin K concentration and testosterone concentration was analyzed using the Tukey method. Analysis of changes over time in the blood testosterone concentrations was performed by two-way layout analysis of variance (repeated). In all cases, significant differences was P<0.05.

[2] = Weight and diet intake of rats on experimental diets, Example 2; format: in vivo, rat; conditions: 75 mg/kg in diet, 35 days; for differences in weight: vs control dietary group (FIG. 5); for differences in diet intake: vs control dietary group (FIG. 6)
Protocol: as §1, §2

[3] = Testis vitamin K analog concentration by HPLC-reduction fluorescence, Example 1 (35-day diet); format: in vivo, rat; conditions: rats, diet with MK-4 75 mg/kg for 35 days, vs low K and control dietary groups (FIG. 1)
Protocol: Experimental animals: ordinary rats (Wistar/Std, eight-week-old males)
(§3) In the breeding method, preparatory breeding was performed in which the rats have free access to feed and water for three to five days. A commercially-available solid feed (product name: MR Labostock by Nosan Corp.) was used. Each experimental diet group includes four rats that were colony-bred in a wire mesh cage. After the preparatory breeding, the rats were fed respective experimental diets and bred for 35 days with free access to feed and water. Blood samples were taken, and testes were removed.
One gram of tissue was precisely measured and placed in a stoppered brown centrifuge tube. Two milliliters of 66% IPA solution was added. The sample was then homogenized in a Polytron homogenizer (Biotron) on ice. […]
The vitamin K homologues in the prepared HPLC sample are non-fluorescent, oxidized types. […] Quantities of the vitamin K groups were determined by an HPLC-reduction fluorescence method that measures fluorescence intensity of the sample. The vitamin K groups were determined as a relative value of MK-3 that was the internal standard.
In the method, the HPLC-reduction fluorescence method is used in which the non-fluorescent, oxidized type vitamin K groups become fluorescent, reduced types through use of the platinum catalyst column. The fluorescence intensity of the vitamin K groups was measured. […]

P450scc = P450scc protein level in testis by Western blot, Example 1; format: in vivo; conditions: rat testis, diet with MK-4 75 mg/kg for 35 days, vs control dietary group (FIG. 3)
Protocol: as §3
Testes of each of the above-described group that had been stored at −80° C. after dissection were used. Anti-P450scc antibodies were purchased from Chemicon International, Inc.
While being iced in 1 ml of 1× Phosphate buffered saline (PBS, including 10 μl of 100 mM phenyl methane sulfonyl fluoride [PMSF]), 0.2 g of testes were homogenized in the Polytron homogenizer (Biotron). […] A portion of the tissue homogenate was used to determine the quantity of protein. […]
One milliliter of ECLTM Western blotting detection reagent (Amersham Corp.) was poured over the entire membrane. […] Luminescent signals were picked up by an Las-1000 Imaging System (Fujifilm Corp.) and quantity was determined using ImageGauge (trademark) image processing software.
Protein concentration in the tissue homogenates was measured by the Bradford method. […]

[4] = person per day; cited from earlier work

MK-4 concentration in the testes [3]	Molecule	testis MK-4 concentration [1]	differences in weight [2]	differences in diet intake [2]	P450scc protein level (P450scc)	tolerable upper intake level [4] [mg]
significantly high	CC(C)=CCC/C(C)=C/CC/C(C)=C/CC/C(C)=C/CC1=C(C)C(=O)c2ccccc2C1=O [MK-4, menaquinone-4]	significantly increased	could not be observed	could not be observed	significantly higher	–
–	CC1=C(C/C=C(\C)CCC[C@H](C)CCC[C@H](C)CCCC(C)C)C(=O)c2ccccc2C1=O [vitamin K1, phylloquinone]	significantly increased	could not be observed	could not be observed	–	–
–	Vitamin K	–	–	–	–	30
